Columns and labels:
T cells = experiment: T-cell viability by Live/Dead staining in treated allo-MLRs; format: cell-based, human; conditions: CAS 285986-31-4 1 μM
Procedure: Fluorochrome-conjugated mouse anti-human mAbs included anti-CD3, -CD4, -CD8, -CD25, -CD45RO, -CD107a, -CD127, -Foxp3, -pSTAT3/pY705, -pSTAT5/pY694, -IFN-, and -IL-17A (BD Biosciences, San Jose, Calif. USA; eBioscience; San Diego, Calif., USA; Invitrogen; Carlsbad, Calif., USA). Viability was assessed by Live/Dead staining (Invitrogen). Live events were acquired on FACSCalibur or LSRII (BD Biosciences) flow cytometers (FlowJo software, ver. 7.6.4; TreeStar, Ashland, Oreg., USA). Gates were defined by appropriate isotype controls. Naive T-cell sorting was performed on the FACSVantageDiVa (BD Biosciences). Where indicated, CD4^+ T cells were purified by magnetic-bead negative selection (Miltenyi Biotec, Auburn, Calif., USA).

[1] = tested on: DC-allosensitized T-cell proliferation; experiment: allo-MLR T-cell proliferation (colorimetric MTS assay, stimulation index); format: cell-based, human; conditions: CAS 285986-31-4 titration 0-100 μM, day 4
Procedure: Allo-MLRs consisted of T cells stimulated by cytokine-mature moDCs (DC:T-cell ratio 1:30, 1×10^5 T cells per 100 μl medium in a 96-well plate, 37° C.). […] The allogeneic moDC stimulators were matured with a cytokine cocktail and terminally differentiated, eliminating the need for irradiation [Betts, B. C., et al. (2011) Blood 118, 5330-5339]. T-cell proliferation was quantified by a colorimetric assay (CellTiter 96 AQueous One Solution Cell Proliferation Assay [MTS]; Promega, Madison, Wis.) on day 5, per the manufacturer's instructions, with absorbance quantified at 490 nm [Betts, B. C., et al. (2011) Blood 118, 5330-5339]. The stimulation index was calculated by dividing the OD of the allo-MLR by the OD of T cells alone. PHA-stimulated T cells served as a positive control. Identical allo-MLRs were cultured with CAS 285986-31-4, to determine the dose-response effect of STAT5 inhibition on allostimulated T-cell growth. For these initial experiments, the cultures were analyzed on day 4 because of the early rapid T-cell proliferation among the STAT5 inhibitor-treated wells. The stimulation index was determined as described.

STAT5 = STAT5 phosphorylation in CD4+ T cells of 5 day allo-MLRs without exogenous cytokine; format: cell-based, human; conditions: CAS 285986-31-4 1 μM
Procedure: (§1) No exogenous cytokine was added. DC-allosensitized T cells were harvested on day 5. […] The ratio of CD4^+, pSTAT5^Bright to CD4^+, pSTAT3^+ T cells was calculated by percentage of phosphorylation.

STAT3 = target: T1, STAT3 (Homo sapiens, UniProt P40763); experiment: STAT3 phosphorylation in CD4+ T cells of 5 day allo-MLRs without exogenous cytokine; format: cell-based; conditions: CAS 285986-31-4 1 μM, 5 day allo-MLR
T1 construct: endogenous in cells; host or cells: primary human T cells from healthy-donor PBMC, allostimulated by monocyte-derived dendritic cells
Procedure: as §1

Foxp3 TSDR = experiment: iTreg Foxp3 demethylation assay; format: cell-based, human; conditions: CAS 285986-31-4 1 μM
Excerpt: iTreg Foxp3 demethylation assay. […] (2013) J. Immunol. 190, 3180-3188; Miyao, T., et al. (2012) Immunity 36, 262-275]. The degree of Foxp3 TSDR demethylation among iTregs from DMSO-treated allo-MLRs, purified nTregs, and Tconvs served as the controls [[…]., et al. (2013) Blood 122(13):2251-61]. For these experiments, iTregs and nTregs were sorted to select the CD4^+ CD25^+ CD127^- population. PCR products were amplified by using methylation or demethylation specific TSDR forward and reverse primers from bisulphate-treated genomic DNA of sorted natural Tregs. DNA fragments were cloned into a pCR2.1-Topo vector (Life Technologies, Grand Island, N.Y., USA) and verified by DNA sequencing. The following TSDR primers and probes were used for PCR: methylation forward [NT] ID NO:1), reverse [NT] ID NO:2), and hydrolysis probe [NT] (SEQ ID NO:3); and demethylation forward [NT] ID NO:4), reverse [NT] ID NO:5), and hydrolysis probe [NT] ID NO:6). Standards were diluted at concentrations ranging from 2^7 to 2^3 plasmid copies of each methylation or demethylation TSDR. Genomic DNA was isolated by using the DNeasy Blood and Tissue kit (Qiagen, Valencia, Calif., USA) from sorted natural or expanded iTregs. Genomic DNA (200-500 ng) was treated with bisulfite from the EZ DNA Methylation-Gold Kit (Zymo Research, Irvine, Calif., USA). […]

iTregs and Tconvs = experiment: iTreg and Tconv expansion from DC-allostimulated naive CD4+ T cells; format: cell-based, human; conditions: CAS 285986-31-4 1 μM
Procedure: To evaluate iTreg development, naive CD4^+ cells were isolated from nylon-wool-eluted T cells by magnetic-bead selection (Miltenyi Biotec), based on the positive expression of CD4 and lack of CD45RO, CD25, or both. In addition, CD127 staining of the naive CD4^+ cells was performed after the purification, to ensure depletion of natural Tregs from the cell product. Negligible amounts of CD127^-, CD25^Bright nTregs were observed after magnetic-bead purification. […] The T cells were harvested and surface stained on day 5 for CD3, -4, -25, and -127, followed by fixation and permeabilization (eBioscience), and then intracellular staining for Foxp3 [Liu, W., et al. (2006) J. Exp. Med. 203, 1701-1711; […]., et al. (2006) J. Exp. Med. 203, 1693-1700]. Tregs were characterized by gating on the live cells expressing surface CD3^+, CD4^+, and absence of CD127, followed by expression of Foxp3 and CD25^bright [Liu, W., et al. (2006) J. Exp. Med. 203, 1701-1711; […]., et al. (2006) J. Exp. Med. 203, 1693-1700]. The absolute number of iTregs and Tconv (CD4^+ CD25^-) cells was obtained by timed acquisition. The ratio of iTreg:Tconv was calculated based on the absolute number of each T-cell population.

primed T-cells = experiment: Secondary alloMLR (3-day restimulation of primed T-cells) proliferation; format: cell-based, human; conditions: Homo sapiens, T-cell; rapamycin 10 ng/ml; read-out: inhibition of proliferation in comparison to DMSO
Excerpt: Bulk donor T-cells were allostimulated with cytokine-matured, allogeneic moDCs at a DC:T-cell ratio of 1:30 as previously described (Florida Blood Services) [Betts, B C, et al. (2011) Blood 118:5330-9; Betts, B C, et al. […] Betts, B C, et al. (2011) Blood 118:5340-3]. […] Lower doses of each drug were used in these experiments to mimic expected physiologic concentrations [Siddiquee, K, et al. (2007) Proceedings of the National Academy of Sciences of the United States of America 104:7391-6; Zeiser, R, et al. (2008) Blood 111:453-62], and to better detect potential synergistic activity with the combination of rapamycin and S3I-201. After 5 days of culture at […]-cell proliferation was measured by a colorimetric assay per the manufacturer's instructions (CellTiter 96 Aqueous One Solution Cell Proliferation Assay [MTS]; Promega, Madison, Wis. USA) [Betts, B C, et al. (2011) Blood 118:5330-9; Betts, B C, et al. […] Betts, B C, et al. (2011) Blood 118:5340-3]. Absorbance/optical density (OD) was analyzed at 490 nm. Secondary alloMLR: […] Following priming, the T-cells were then rested and re-cultured with fresh first-party moDCs (DC:T-cell ratio of 1:30). […] After 3 days, T-cell proliferation was measured by a colorimetric assay as described (Promega). T-cells alone and PHA-stimulated T-cells served as negative and positive controls, respectively, for both the primary and secondary alloMLRs.

TH17 responses = conditions: neutralization of IL-6, literature; cited from earlier work
[2] = literature; cited from earlier work

T1 sequence (P40763 whole entry): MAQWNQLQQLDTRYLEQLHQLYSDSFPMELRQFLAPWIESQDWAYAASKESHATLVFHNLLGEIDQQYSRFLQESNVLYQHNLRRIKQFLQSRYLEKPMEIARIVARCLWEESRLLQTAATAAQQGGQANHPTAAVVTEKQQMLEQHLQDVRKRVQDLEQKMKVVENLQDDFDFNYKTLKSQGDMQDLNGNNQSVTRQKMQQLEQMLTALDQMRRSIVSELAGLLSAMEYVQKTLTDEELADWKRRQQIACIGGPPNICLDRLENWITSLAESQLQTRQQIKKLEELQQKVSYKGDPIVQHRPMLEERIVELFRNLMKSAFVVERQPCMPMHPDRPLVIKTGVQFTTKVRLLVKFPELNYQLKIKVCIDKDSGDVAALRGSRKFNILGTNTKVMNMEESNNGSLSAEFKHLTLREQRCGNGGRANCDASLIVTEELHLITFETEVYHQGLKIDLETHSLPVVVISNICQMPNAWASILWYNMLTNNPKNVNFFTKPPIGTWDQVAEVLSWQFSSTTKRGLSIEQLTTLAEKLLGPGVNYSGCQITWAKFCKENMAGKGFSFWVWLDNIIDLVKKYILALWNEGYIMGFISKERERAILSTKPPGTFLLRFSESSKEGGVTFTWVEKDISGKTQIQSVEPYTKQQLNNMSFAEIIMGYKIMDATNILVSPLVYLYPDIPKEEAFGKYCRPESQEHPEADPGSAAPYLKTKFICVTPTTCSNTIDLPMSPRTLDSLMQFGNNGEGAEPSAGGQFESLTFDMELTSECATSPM

Compound: O=C(N/N=C/c1coc2ccccc2c1=O)c1cccnc1 [CAS 285986-31-4]
- toxic effects by viability staining (T cells): no toxic effects
- concentration achieving maximum allostimulated T-cell growth [1]: 1 µM
- ratio of CD4+, pSTAT5Bright to CD4+, pSTAT3+ T cells (STAT5): significantly decreased
- CD4+, pSTAT5Bright population (STAT5; 5 day allo-MLR): selectively impaired
- overall geometric MFI of CD4+ STAT5 phosphorylation (STAT5; 5 day allo-MLR): did not affect
- STAT3 signaling (STAT3): maintained intact
- iTreg Foxp3 demethylation (Foxp3 TSDR): significant reduction
- allostimulated iTreg expansion (iTregs and Tconvs): significantly decreased
- iTreg:Tconv ratio compared with DMSO or STAT3 inhibitor (iTregs and Tconvs): significant reduction

Compound: CO[C@H]1C[C@@H]2CC[C@@H](C)[C@@](O)(O2)C(=O)C(=O)N2CCCC[C@H]2C(=O)O[C@H]([C@H](C)C[C@@H]2CC[C@@H](O)[C@H](OC)C2)CC(=O)[C@H](C)/C=C(\C)[C@@H](O)[C@@H](OC)C(=O)[C@H](C)C[C@H](C)/C=C/C=C/C=C/1C [rapamycin]
- inhibition at 0.01 µg/mL (primed T-cells): 69%

Compound: tocilizumab: humanised IL-6 receptor-inhibiting monoclonal antibody
- reducing TH17 responses or enhancing Treg development (TH17 responses): insufficient

Compound: ustekinumab: monoclonal antibody targeting the p40-cytokines
- efficacy in refractory GVHD [2]: demonstrated efficacy
